# Measurements reported in patent US4749798A, “Fluoro coumarins as antilymphoedema agents” (priority 1984, dated 1988).
# “Also recorded” adds a separate entry of the source. Like-named read-outs stand apart in the source and are kept apart here.
# Legend:
# [1] = test system: carrageenan induced edema of the rats hind paw; assay: carrageenan induced edema of the rat hind paw; type: in vivo; settings: for activity relative to coumarin: "at least 1.5-2.5 times more active than coumarin"; for reduction of carrageenan induced edema: at all the times (1; 3; 4 and 5 h)
# Source text: 6-fluoro coumarin and the compounds of the invention are also effective in the management of the acute inflammation.
# The carrageenan edema test proposed by Winter C. A., Risley A., Noss G. W. (Proc. Soc. Exp. Biol., 101, 544, 1962) was used.
# The compounds, administered i.p. 30' before the carrageenan as suspension in 1% aqueous carboxymethylcellulose homogeneized by ultrasounds, were compared with coumarin at different dose-levels on 6 animal groups. The percent reduction of the rat hind paw edema was evaluated at different times.
# coagulation factors = assay: coagulation parameters (DPTT, Hepato quick, clotting time); type: in vivo
# coagulation = settings: Schofield; Feuer et al.; cited from earlier work
# [2] = test system: S. typhimurium (TA 1535, TA 1537, TA 1538, TA 98, TA 100); settings: cited from earlier work
# [3] = test system: blood-dot area in right ear; assay: re-absorption of citrated blood injected in the rabbit ear (blood-dot area); type: in vivo, New Zealand rabbits; settings: oral, placebo 20.3
# Method: Finally, the compounds of the invention are able to induce re-absorption of the total citrated blood when blood is injected in the right ear of New Zealand rabbits. 12 hours after blood inoculation into ear, the animal were randomized and treated with scalar doses of the investigated compounds administered for 4 days by oral route. The blood-dot areas are evaluated and compared with the areas of the control animals treated with placebo only. In table 5 are reported some experimental results.
# [4] = test system: mouse peritoneal macrophages; assay: proteolysis by mouse peritoneal macrophages; settings: for increase in proteolysis: at the higher doses, coumarin at similar doses; for Potency ratio in the proteolytic test: 50 mg/kg i.p. in sesame oil, 10 replication, coumarin = 1; for Mean ICA-soluble fragm. (24 h-0 h) x 10^6 cell: 10 mice; for minimal effective dose: Mus musculus, Peritoneal macrophage, ip
# Source text: Ability of the 6-fluoro coumarin itself, and the other compounds of the invention, to increase proteolysis by mouse peritoneal macrophages is shown by using the testing procedure reported by T. Bolton and J. R. Casley-Smith, Experimentia, 31, 275 (1975).
# Due to the great standard error, many replications are necessary in order to obtain reliable dose-response curves.
# [5] = test system: burning induced oedema of hind paws; assay: burning induced oedema test; type: in vivo, Sprague-Dawley male rats; settings: for activity relative to 6-fluoro coumarin (equiactive): burning induced oedema; for % inhibition / Paw volume, DV: 12 h
# Method: Reduction of the burning induced oedema test has been also used to evidentiate the antiinflammatory activity and the proteolytic mechanism of action of the compounds of the invention. 18 hours-fasted Sprague-Dawley male rats, body weight: 170-220 g, are used in this testing procedure. The animals are divided into five animal groups and the volume (in ml) of the posterior hind paws is measured before these paws are burnt by immersion for 22 seconds in 55° C. heated water. 15 minutes after burning, the animals are treated, by oral route, with different dosages of the investigated compounds and placebo. The volume of paws is measured 6, 12 and 18 hours after burning and the increased volume of the paws is evaluated.
# S. Pombae = assay: forward mutation in S. Pombae; type: cell-based
# [6] = cited from earlier work
# [7] = Occupational Safety and Health Administration; cited from earlier work
# [8] = metabolism after oral administration to rabbits, analysis of faeces and urines over 24 hours; settings: rabbit, coumarin in similar experimental conditions
# Method: In a second experiment, C^14 -labelled 6-fluoro coumarin was administered by oral route to rabbits and faeces and urines were collected during a period of 24 hours. As it is usual for metabolic studies, the excreta were treated by β-glucoronidase and aryl sulfatase and extracted by methylene chloride in a little acid medium. […] In these studies, labelled 6-fluoro coumarin having a 1 Ci/mole specific radioactivity was used.
# [9] = test system: S-typhimurium TA 1535, TA 1537, TA 1538, TA 98 and TA 100; assay: Ames test; type: cell-based
# lymphoedemas = assay: preliminary experiments in humans with primary and secondary lymphoedemas; type: in vivo; settings: capsules of 50 mg
# Method: So, a very restricted number of selected male and female patients, affected by primary and secondary lymphoedemas, with intact renal and hepatic functions, was treated with the compounds of the invention, particularly with 6-fluoro coumarin.
# In the absence of any other therapeutic treatment, the selected schedule of treatment foresees administration of capsules, many times pro die.
# The diagnostic parameters investigated are: general and gastric clinical tolerability; number of red blood cell, leukocites, neutrophiles and platelets; haemoglobin concentration, γ-glutamyl transpeptidase; serum creatinine and volume of edema.
# dog liver microsomes = assay: incubation of labelled C^14-6 fluoro coumarin with dog liver microsomes; type: in vitro ADME; settings: C^14-labelled
# Method: Using the method reported by T. C. Butler et al. (Arch. Intern. Pharmacod. Ther., 228, 4 (1977)), labelled C^14 -6 fluoro coumarin was incubated with dog liver microsomes.
# [10] = oral, 2 consecutive days, equimolecular doses
smiles,measurement,setting,value
OC1Oc2ccc(F)cc2C=C1Br (stereo not shown) [6-fluoro-3-bromo-2.xi.-hydroxy-2H-1-benzopyrane],% Reduction of the edema by carrageenan,"[1]; 0.76 mg/kg i.p., 3 h",65%
same,% Reduction of the edema by carrageenan,"[1]; 1.55 mg/kg i.p., 3 h",72%
same,% Reduction of the edema by carrageenan,"[1]; 3.12 mg/kg i.p., 3 h",88%
same,% Reduction of the edema by carrageenan,"[1]; 3.12 mg/kg i.p., 5 h",84%
same,% Reduction of the edema by carrageenan,"[1]; 6.25 mg/kg i.p., 3 h",87%
"O=c1oc2ccccc2c(O)c1Cc1c(O)c2ccccc2oc1=O [dicoumarol, reference compound]",effect on DPTT,coagulation factors; [10],very strong effect
same,effect on Hepato quick,coagulation factors; [10],very strong effect
same,anticoagulant activity,coagulation,anticoagulant activites
"O=c1ccc2ccccc2o1 [coumarin, 2H-1-benzopyran-2-one]",mutagenicity,[2],weak mutagenic substance
same,% reduction of blood-dot area after 4 days,[3]; 50 mg/kg pro die,67.31%
same,effects in mitotic genic conversion test,S. cerevisiae,positive responder
same,increase in proteolysis,[4],2.2 fold
same,% Reduction of the edema by carrageenan,"[1]; 1.55 mg/kg i.p., 3 h",23%
same,% Reduction of the edema by carrageenan,"[1]; 3.12 mg/kg i.p., 3 h",53%
same,% Reduction of the edema by carrageenan,"[1]; 3.12 mg/kg i.p., 5 h",53.4%
same,% Reduction of the edema by carrageenan,"[1]; 6.25 mg/kg i.p., 3 h",78%
same,inhibition,[5]; 50 mg/kg,35%
same,times less active than 6-fluoro coumarin,[5]; 50 mg/kg,about 2 times
same,effects in forward mutation test,S. Pombae,positive responder
same,metabolism in man,[6],extensively metabolized in man upon first pass through the liver; also recorded: C-3 hydroxylation practically absent in man
same,effect on Hepato quick,"coagulation factors; in vivo, po",moderately influences Hepato quick (in decreasing way)
same,effects in gene mutation test,somatic mammalian cells,positive responder
same,anticoagulant activity,coagulation,anticoagulant activites
same,carcinogen category,[7],category I carcinogen
same,metabolism (hydroxylation / lactone ring opening),[8],metabolized by hydroxylation and also by δ-lactone ring opening; also recorded: metabolized by hydroxylation and by δ-lacton ring opening
CC(C)OC1C=Cc2cc(F)ccc2O1 (stereo not shown) [6-fluoro-2.xi.-isopropoxy-2H-1-benzopyrane],Potency ratio in the proteolytic test,[4],1.61
same,activity relative to coumarin,[1],1.5-2.5 times
same,reduction of carrageenan induced edema,[1],reduce carrageenan induced edema of the rats hind paw at all the times
same,activity relative to 6-fluoro coumarin (equiactive),[5],0.85-1.5 times
"O=c1oc2ccc(F)cc2cc1Cl [3-Cl--6-fluoro, 6-fluoro-3-chloro-2H-1-benzopyran-2-one]",Potency ratio in the proteolytic test,[4],1.4
"O=c1oc2ccc(F)cc2cc1Br [3-Br--6-fluoro, 6-fluoro-3-bromo-2H-1-benzopyran-2-one]",% reduction of blood-dot area after 4 days,[3]; 50 mg/kg pro die,69%
same,Potency ratio in the proteolytic test,[4],1.75
same,activity relative to coumarin,[1],1.5-2.5 times
same,reduction of carrageenan induced edema,[1],reduce carrageenan induced edema of the rats hind paw at all the times
same,activity relative to 6-fluoro coumarin (equiactive),[5],0.85-1.5 times
"Cc1cc(=O)oc2ccc(F)cc12 [4-methyl-6-F, 6-fluoro-4-methyl-2H-1-benzopyran-2-one]",% reduction of blood-dot area after 4 days,[3]; 50 mg/kg pro die,65%
same,Potency ratio in the proteolytic test,[4],1.78
same,activity relative to coumarin,[1],1.5-2.5 times
same,reduction of carrageenan induced edema,[1],reduce carrageenan induced edema of the rats hind paw at all the times
same,activity relative to 6-fluoro coumarin (equiactive),[5],0.85-1.5 times
COC1Oc2ccc(F)cc2C=C1Br (stereo not shown) [6-fluoro-3-bromo-2.xi.-methoxy-2H-1-benzopyrane],activity relative to coumarin,[1],1.5-2.5 times
same,reduction of carrageenan induced edema,[1],reduce carrageenan induced edema of the rats hind paw at all the times
same,activity relative to 6-fluoro coumarin (equiactive),[5],0.85-1.5 times
"OC1C=Cc2cc(F)ccc2O1 (stereo not shown) [6-fluoro-2H--1-benzopyran-2.zeta.-ol, 6-fluoro-2H-1-benzopyran-2.xi.-ol]",% reduction of blood-dot area after 4 days,[3]; 40 mg/kg pro die,59%
same,Potency ratio in the proteolytic test,[4],1.45
same,activity relative to coumarin,[1],1.5-2.5 times
same,reduction of carrageenan induced edema,[1],reduce carrageenan induced edema of the rats hind paw at all the times
"O=c1ccc2cc(F)cc(F)c2o1 [6,8-difluoro, 6,8-difluoro-2H-1-benzopyran-2-one]",Potency ratio in the proteolytic test,[4],1.45
"O=c1ccc2cc(F)ccc2o1 [6-fluoro coumarin, 6-fluoro-2H-1-benzopyran-2-one]",mutagenic property in the Ames test,[9],no mutagenic property is evident
same,% reduction of blood-dot area after 4 days,[3]; 25 mg/kg pro die,64.13%
same,% reduction of blood-dot area after 4 days,[3]; 50 mg/kg pro die,92%
same,effects in mitotic genic conversion test,S. cerevisiae,No kinds of effects are noticed
same,Significance of difference from control,[4]; 3.12 mg/kg i.p.,NS (p > 0.05)
same,Mean ICA-soluble fragm. (24 h-0 h) x 10^6 cell,[4]; 3.12 mg/kg i.p.,0.22 mM glycin
same,Significance of difference from control,[4]; 6.25 mg/kg i.p.,NS (p > 0.05)
same,Mean ICA-soluble fragm. (24 h-0 h) x 10^6 cell,[4]; 6.25 mg/kg i.p.,0.19 mM glycin
same,Significance of difference from control,[4]; 12.5 mg/kg i.p.,* (0.05 > p > 0.01)
same,Mean ICA-soluble fragm. (24 h-0 h) x 10^6 cell,[4]; 12.5 mg/kg i.p.,0.29 mM glycin
same,Mean ICA-soluble fragm. (24 h-0 h) x 10^6 cell,[4]; 25 mg/kg i.p.,0.37 mM glycin
same,Significance of difference from control,[4]; 50 mg/kg i.p.,* (0.05 > p > 0.01)
same,Potency ratio in the proteolytic test,[4],11.5
same,Mean ICA-soluble fragm. (24 h-0 h) x 10^6 cell,[4]; 50 mg/kg i.p.,0.34 mM glycin
same,Mean ICA-soluble fragm. (24 h-0 h) x 10^6 cell,[4]; 100 mg/kg i.p.,0.40 mM glycin
same,minimal effective dose,[4]; read-out: dosage level with proteolysis significantly greater than the control,> 6.25 mg/kg
same,minimal effective dose,[4]; read-out: dose from which stimulation of protein digestion starts,12.5 mg/kg
same,increase in proteolysis,[4],threefold
same,activity relative to coumarin,[1],1.5-2.5 times
same,reduction of carrageenan induced edema,[1],reduce carrageenan induced edema of the rats hind paw at all the times
same,tolerability,"lymphoedemas; 10 treated patients, all dosages investigated",excellent
same,patients with significant reduction of the oedema volume,lymphoedemas; of 10 treated patients,4 patients
same,% inhibition,[5]; 12.5 mg/kg oral,no sign
same,"Paw volume, DV",[5]; 12.5 mg/kg oral,0.86 mL
same,"Paw volume, 12 h value","[5]; 12.5 mg/kg oral, basal 1.348",2.207 mL
same,% inhibition,[5]; 25.0 mg/kg oral,37%
same,"Paw volume, DV",[5]; 25.0 mg/kg oral,0.56 mL
same,"Paw volume, 12 h value","[5]; 25.0 mg/kg oral, basal 1.504",2.060 mL
same,% inhibition,[5]; 50.0 mg/kg oral,67%
same,"Paw volume, DV",[5]; 50.0 mg/kg oral,0.29 mL
same,"Paw volume, 12 h value","[5]; 50.0 mg/kg oral, basal 1.464",1.760 mL
same,% inhibition,[5]; 1000.0 mg/kg oral,71%
same,"Paw volume, DV",[5]; 1000.0 mg/kg oral,0.26 mL
same,"Paw volume, 12 h value","[5]; 1000.0 mg/kg oral, basal 1.416",1.676 mL
same,effects in forward mutation test,S. Pombae,No kinds of effects are noticed
same,metabolism by cytochromes,dog liver microsomes,not metabolized by cytochromes
same,recovery of unchanged compound,dog liver microsomes,80%
same,effect on DPTT,coagulation factors; [10],not able to modify
same,effect on Hepato quick,coagulation factors; [10],not able to modify
same,effect on clotting time,coagulation factors; [10],not able to modify
same,effects in gene mutation test,somatic mammalian cells,No kinds of effects are noticed
COC1C=Cc2cc(F)ccc2O1 (stereo not shown) [6-fluoro-2.xi.-methoxy-2H-1-benzopyrane],% Reduction of the edema by carrageenan,"[1]; 0.76 mg/kg i.p., 3 h",58%
same,% Reduction of the edema by carrageenan,"[1]; 1.55 mg/kg i.p., 3 h",70%
same,% Reduction of the edema by carrageenan,"[1]; 3.12 mg/kg i.p., 3 h",79%
same,% Reduction of the edema by carrageenan,"[1]; 3.12 mg/kg i.p., 5 h",87%
same,% Reduction of the edema by carrageenan,"[1]; 6.25 mg/kg i.p., 3 h",84%
same,activity relative to coumarin,[1],1.5-2.5 times
same,reduction of carrageenan induced edema,[1],reduce carrageenan induced edema of the rats hind paw at all the times
same,activity relative to 6-fluoro coumarin (equiactive),[5],0.85-1.5 times
